Results on 24 molecules are retold here after patent publication US8796305B2 (Bayer Pharma Aktiengesellschaft, priority 2012, dated 2014).

Where a name gives a salt, the structure may show the parent alone.

The target of the test is T1, recombinant guanylate cyclase reporter cell line (Rattus norvegicus, UniProt P19686+P20595).
T1 construct: expressed in transfected cells
T1 sequence (P20595 1-619): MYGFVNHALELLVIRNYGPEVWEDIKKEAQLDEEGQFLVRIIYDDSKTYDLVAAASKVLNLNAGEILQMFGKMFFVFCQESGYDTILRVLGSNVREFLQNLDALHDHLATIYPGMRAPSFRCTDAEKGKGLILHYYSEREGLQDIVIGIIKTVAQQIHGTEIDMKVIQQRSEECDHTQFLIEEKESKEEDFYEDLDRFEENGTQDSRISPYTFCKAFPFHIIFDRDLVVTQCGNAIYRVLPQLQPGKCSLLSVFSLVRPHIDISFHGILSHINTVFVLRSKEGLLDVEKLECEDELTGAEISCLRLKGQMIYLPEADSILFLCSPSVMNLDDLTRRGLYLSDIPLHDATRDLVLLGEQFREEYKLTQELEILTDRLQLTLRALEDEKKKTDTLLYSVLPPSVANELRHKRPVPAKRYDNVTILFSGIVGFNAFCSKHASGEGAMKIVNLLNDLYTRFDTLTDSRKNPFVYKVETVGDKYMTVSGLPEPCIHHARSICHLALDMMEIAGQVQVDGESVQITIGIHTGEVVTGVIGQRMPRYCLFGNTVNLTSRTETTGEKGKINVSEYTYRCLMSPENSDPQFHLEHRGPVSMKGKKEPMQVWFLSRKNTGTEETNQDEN
T1 sequence (P19686 1-690): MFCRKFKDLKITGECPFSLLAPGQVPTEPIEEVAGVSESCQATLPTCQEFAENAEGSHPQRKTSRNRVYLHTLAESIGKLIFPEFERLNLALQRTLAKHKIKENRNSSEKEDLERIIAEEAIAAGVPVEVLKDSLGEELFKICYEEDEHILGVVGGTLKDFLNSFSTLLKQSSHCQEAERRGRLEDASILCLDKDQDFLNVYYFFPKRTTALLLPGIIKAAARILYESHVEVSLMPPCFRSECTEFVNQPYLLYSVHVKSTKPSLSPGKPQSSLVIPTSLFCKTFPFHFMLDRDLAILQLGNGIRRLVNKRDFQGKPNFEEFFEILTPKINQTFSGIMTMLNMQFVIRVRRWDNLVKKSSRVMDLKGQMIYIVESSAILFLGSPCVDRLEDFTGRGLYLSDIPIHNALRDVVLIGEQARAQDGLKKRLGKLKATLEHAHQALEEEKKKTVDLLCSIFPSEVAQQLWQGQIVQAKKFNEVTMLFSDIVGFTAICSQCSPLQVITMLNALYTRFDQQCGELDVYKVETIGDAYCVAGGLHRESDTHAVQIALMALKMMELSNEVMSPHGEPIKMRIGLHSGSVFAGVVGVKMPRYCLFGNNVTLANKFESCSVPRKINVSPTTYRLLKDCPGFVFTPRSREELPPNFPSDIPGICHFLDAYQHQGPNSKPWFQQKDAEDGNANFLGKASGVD
In words: Action on recombinant guanylate cyclase reporter cell line. The test is classed as cell-based. Particulars: representative MEC values. The procedure: B-2. Action on Recombinant Guanylate Cyclase Reporter Cell Line
The cellular action of the compounds according to the invention is determined on a recombinant guanylate cyclase reporter cell line, as described in F. Wunder et al., Anal. Biochem. 339, 104-112 (2005).
Representative MEC values (MEC=minimal effective concentration) for the compounds according to the invention are shown in the following table: […]
As to `COC(=O)C(C)(C)NC(=O)c1c(C)nc2c(OCc3c(F)cccc3F)cccn12` [Example 5, Methyl N-({8-[(2,6-difluorobenzyl)oxy]-2-methylimidazo[1,2-a]pyridin-3-yl}carbonyl)-2-methylalaninate], the “MEC (minimal effective concentration)” value is 0.3 µM.

On to `COC(=O)C(CCC(F)(F)F)NC(=O)c1c(C)nc2c(OCc3c(F)cccc3F)cccn12` (racemic) [Example 10, rac-Methyl N-({8-[(2,6-difluorobenzyl)oxy]-2-methylimidazo[1,2-a]pyridin-3-yl}carbonyl)-5,5,5-trifluoronorvalinate], for which the “MEC (minimal effective concentration)” value worked out at 1.0 µM. Then `CCCCC(NC(=O)c1c(C)nc2c(OCc3c(F)cccc3F)cccn12)C(=O)OC` (single isomer, unassigned; enantiomer a) [Example 18, ent-Methyl N-({8-[(2,6-difluorobenzyl)oxy]-2-methylimidazo[1,2-a]pyridin-3-yl}carbonyl)-norleucinate (Enantiomer A)], with 0.3 µM; and `CCCCC(NC(=O)c1c(C)nc2c(OCc3c(F)cccc3F)cccn12)C(=O)OC` (racemic) [Example 8, rac-Methyl N-({8-[(2,6-difluorobenzyl)oxy]-2-methylimidazo[1,2-a]pyridin-3-yl}carbonyl)norleucinate], with 1.0 µM.

Take `CCCC[C@H](NC(=O)c1c(C)nc2c(OCc3c(F)cccc3F)cccn12)C(=O)O` [Example 23, N-({8-[(2,6-Difluorobenzyl)oxy]-2-methylimidazo[1,2-a]pyridin-3-yl}carbonyl)norleucine hydrochloride]: the “MEC (minimal effective concentration)” value is 2.0 µM. In the case of `CCCCC(NC(=O)c1c(C)nc2c(OCc3c(F)cccc3F)cccn12)C(=O)OC` (single isomer, unassigned; enantiomer b) [Example 19, ent-Methyl N-({8-[(2,6-difluorobenzyl)oxy]-2-methylimidazo[1,2-a]pyridin-3-yl}carbonyl)-norleucinate (Enantiomer B)], the “MEC (minimal effective concentration)” value is 1.0 µM. As to `COC(=O)C(NC(=O)c1c(C)nc2c(OCc3c(F)cccc3F)cccn12)c1ccc(Cl)cc1` (racemic) [Example 2, rac-Methyl (4-chlorophenyl)[({8-[(2,6-difluorobenzyl)oxy]-2-methylimidazo[1,2-a]pyridin-3-yl}carbonyl)amino]acetate], the “MEC (minimal effective concentration)” value was found to be 0.3 µM.

Regarding `COC(=O)CCNC(=O)c1c(C)nc2c(OCc3c(F)cccc3F)cccn12` [Example 7, Methyl N-({8-[(2,6-difluorobenzyl)oxy]-2-methylimidazo[1,2-a]pyridin-3-yl}carbonyl)-beta-alaninate], the “MEC (minimal effective concentration)” value turned out to be 1.0 µM. Then `COC(=O)C(CC(F)(F)F)NC(=O)c1c(C)nc2c(OCc3c(F)cccc3F)cccn12` (racemic) [Example 9, rac-Methyl 2-[({8-[(2,6-difluorobenzyl)oxy]-2-methylimidazo[1,2-a]pyridin-3-yl}carbonyl)amino]-4,4,4-trifluorobutanoate], with 3.0 µM; and `COC(=O)CCCCCCCNC(=O)c1c(C)nc2c(OCC3CCCCC3)cccn12` [Example 16], with 0.3 µM. In the case of `COC(=O)[C@@H](C)NC(=O)c1c(C)nc2c(OCc3c(F)cccc3F)cccn12` [Example 6, Methyl N-({8-[(2,6-difluorobenzyl)oxy]-2-methylimidazo[1,2-a]pyridin-3-yl}carbonyl)-D-alaninate], the “MEC (minimal effective concentration)” value was determined as 3.0 µM.

For `Cc1nc2c(OCC3CCCCC3)cccn2c1C(=O)NCCCCCCCC(=O)O` [Example 20, 8-({[8-(Cyclohexylmethoxy)-2-methylimidazo[1,2-a]pyridin-3-yl]carbonyl}amino)octanoic acid], the “MEC (minimal effective concentration)” value stood at 0.065 µM. Take `COC(=O)CCCCCCCNC(=O)c1c(C)nc2c(OCc3c(F)cccc3F)cccn12` [Example 15, Methyl 8-[({8-[(2,6-difluorobenzyl)oxy]-2-methylimidazo[1,2-a]pyridin-3-yl}carbonyl)amino]octanoate]: the “MEC (minimal effective concentration)” value turned out to be 1.0 µM. As for `COC(=O)CC(NC(=O)c1c(C)nc2c(OCc3c(F)cccc3F)cccn12)C(F)(F)F` (racemic) [Example 17, rac-Methyl 3-[({8-[(2,6-difluorobenzyl)oxy]-2-methylimidazo[1,2-a]pyridin-3-yl}carbonyl)-amino]-4,4,4-trifluorobutanoate], the “MEC (minimal effective concentration)” value amounted to 1.0 µM. Then `Cc1nc2c(OCC3CCCCC3)cccn2c1C(=O)NCCCCCC(=O)O` [Example 22, 6-({[8-(Cyclohexylmethoxy)-2-methylimidazo[1,2-a]pyridin-3-yl]carbonyl}amino)hexanoic acid], with 0.3 µM; and `COC(=O)C(NC(=O)c1c(C)nc2c(OCc3c(F)cccc3F)cccn12)c1ccc(F)cc1` (racemic) [Example 1, rac-Methyl [({8-[(2,6-difluorobenzyl)oxy]-2-methylimidazo[1,2-a]pyridin-3-yl}carbonyl)amino]-(4-fluorophenyl)acetate], with 0.3 µM; and `COC(=O)C(CCCC(F)(F)F)NC(=O)c1c(C)nc2c(OCc3c(F)cccc3F)cccn12` (racemic) [Example 11, rac-Methyl N-({8-[(2,6-difluorobenzyl)oxy]-2-methylimidazo[1,2-a]pyridin-3-yl}carbonyl)-6,6,6-trifluoronorleucinate], with 0.3 µM. Under `COC(=O)C(CCCC(F)(F)F)NC(=O)c1c(C)nc2c(OCc3c(F)ccc(F)c3F)cc(C)cn12` (racemic) [Example 14, rac-Methyl N-({2,6-dimethyl-8-[(2,3,6-trifluorobenzyl)oxy]imidazo[1,2-a]pyridin-3-yl}carbonyl)-6,6,6-trifluoronorleucinate] stands 0.3 µM. Under `Cc1nc2c(OCc3c(F)cccc3F)cccn2c1C(=O)N[C@@H]1CCOC1=O` [Example 3, 8-[(2,6-Difluorobenzyl)oxy]-2-methyl-N-[(3R)-2-oxotetrahydrofuran-3-yl]imidazo[1,2-a]pyridine-3-carboxamide] stands 0.3 µM; under `COC(=O)C(CCCC(F)(F)F)NC(=O)c1c(C)nc2c(OCc3c(F)cccc3F)cc(C)cn12` (racemic) [Example 12, rac-Methyl N-({8-[(2,6-difluorobenzyl)oxy]-2,6-dimethylimidazo[1,2-a]pyridin-3-yl}carbonyl)-6,6,6-trifluoronorleucinate], 0.3 µM; under `Cc1cc(OCc2c(F)cccc2F)c2nc(C)c(C(=O)NC[C@H]3CC[C@H](C(=O)O)CC3)n2c1` [Example 25, trans-4-{[({8-[(2,6-Difluorobenzyl)oxy]-2,6-dimethylimidazo[1,2-a]pyridin-3-yl}carbonyl)amino]methyl}cyclohexanecarboxylic acid], 1.0 µM. In the case of `Cc1nc2c(OCc3c(F)cccc3F)cccn2c1C(=O)NCCCCCCCC(=O)O` [Example 21, 8-[({8-[(2,6-Difluorobenzyl)oxy]-2-methylimidazo[1,2-a]pyridin-3-yl}carbonyl)amino]octanoic acid], the “MEC (minimal effective concentration)” value came out at 0.1 µM. As to `COC(=O)C(CCCC(F)(F)F)NC(=O)c1c(C)nc2c(OCc3c(F)cccc3F)cc(Cl)cn12` (racemic) [Example 13, rac-Methyl N-({6-chloro-8-[(2,6-difluorobenzyl)oxy]-2-methylimidazo[1,2-a]pyridin-3-yl}carbonyl)-6,6,6-trifluoronorleucinate], the “MEC (minimal effective concentration)” value amounted to 0.3 µM. Then `COC(=O)CC(C)NC(=O)c1c(C)nc2c(OCc3c(F)cccc3F)cccn12` (racemic) [Example 4, rac-Methyl 3-[({8-[(2,6-difluorobenzyl)oxy]-2-methylimidazo[1,2-a]pyridin-3-yl}carbonyl)amino]butanoate], with 1.0 µM.
